In patent US5428059A, “Benzopyran derivatives and an anti-allergic agent possessing the same as the active ingredient” (Dainippon Ink & Chemicals, Inc., priority 1991, dated 1995):

Tested on: Hartley-type male guinea pigs
Experiment: Guinea Pig Homogeneous Skin Passive Anaphylaxis Assay (PCA reaction)
Type: in vivo, guinea pig (Hartley-type)
Conditions: 10 mg/kg oral, 48 h after sensitization; for inhibition in vivo at 10 mg/kg: Cavia porcellus, read-out: Allergic reaction inhibitory index (%)
Method: In order to confirm the anti-allergic action of the compounds according to the present invention, as an anti-allergic action confirmation assay, the widely used Guinea Pig Homogeneous Skin Passive Anaphylaxis Assay (PCA Reaction Assay; Passive Cutaneous Anaphylaxis Reaction Assay) was carried out. The assay method used will be explained in the following.
Assay method: Hartley-type male guinea pigs (body weight: 250~300 g) were sensitized by the following procedure; a mixture of 2 μg of egg albumin (OVA) and 5 μg of aluminium hydroxide gel was administered intraperitoneally 3 times every 2 weeks, and the anti-OVA blood serum was manufactured.
The anti-blood serum obtained was then diluted 120 times using physiological saline solution, and then to groups each containing 6 shaved guinea pigs, was injected at a quantity of 0.05 ml respectively, into two positions in the back portion, inside the skin of each animal.
After the 48th hour of sensitization, 10 mg/kg of the test substance to be tested was orally administered, following which a mixture of 2 mg OVA and 5 mg of Evans Blue was administered by intraveneous injection into the hind leg, triggering the anaphylaxis reaction. As the positive control, Tranilast, a well known anti-allergic agent, was used, and in the same manner as the substances to be tested, 100 mg/kg of it was orally administered after the 48th hour of sensitization.
30 minutes after triggering the reaction, the animals were bled to death under ether anesthesia, and their back portion skins were peeled off. The long and short diameters of pigment leakage spots on the interior surface of the skins were measured, and the product of these (mm^2) were entered into formula 1 as "pigment leakage amount", from which the allergic reaction inhibitory index wins calculated. [formula]
I: Allergic reaction inhibitory index (%)
A: Pigment leakage amount of solvent control group
B: Pigment leakage amount of test substance group
C: Pigment leakage amount of […]

With `CCCCOc1c(OC(=O)c2ccccc2)c(=O)oc2cccc(O)c12` [Compound 224, 3-(benzoyloxy)-4-(butoxy)-5-hydroxy-2H-1-benzopyran-2-one] the inhibition in vivo at 10 mg/kg was 30%.
`COc1cccc2c(OC/C=C(\C)CCC=C(C)C)c(OC/C=C(\C)CCC=C(C)C)c(=O)oc12` [Compound 126, 3,4-(digeranyloxy)-8-(methoxy)-2H-1-benzopyran-2-one] gave an inhibition in vivo at 10 mg/kg of 30%.
For `CCCCCCCCCCOc1c(OC)c(=O)oc2cccc(O)c12` [Compound 184, 3-(methoxy)-4-(decyloxy)-5-hydroxy-2H-1-benzopyran-2-one], the inhibition in vivo at 10 mg/kg was 33%.
Work on `CCCCCCCCCCOc1ccc2c(OC(C)C)c(OC)c(=O)oc2c1` [Compound 64, 3-(methoxy)-4-(isopropoxy)-7-(decyloxy)-2H-1-benzopyran-2-one] yielded an inhibition in vivo at 10 mg/kg of 30%.
`O=c1oc2cc(O)ccc2c(O)c1O` [Compound 5, 3,4,7-trihydroxy-2H-1-benzopyran-2-one] showed an inhibition in vivo at 10 mg/kg of 68%.
`CC(C)Oc1ccc2c(OC(=O)c3ccccc3)c(OC(C)C)c(=O)oc2c1` [Compound 52, 3,7-(diisopropoxy)-4-(benzoyloxy)-2H-1-benzopyran-2-one] showed an inhibition in vivo at 10 mg/kg of 32%.
Molecule `CCCCCCCCCCOc1cccc2c(OC/C=C(\C)CCC=C(C)C)c(O)c(=O)oc12` [Compound 152, 3-hydroxy-4-(geranyloxy)-8-(decyloxy)-2H-1-benzopyran-2-one] has an inhibition in vivo at 10 mg/kg of 31%.
For `CCCCCCCCCCOc1c(OC(C)=O)c(=O)oc2cccc(OC(C)C)c12` [Compound 217, 3-(acetoxy)-4-(decyloxy)-5-(isopropoxy)-2H-1-benzopyran-2-one], the inhibition in vivo at 10 mg/kg was 30%.
Work on `CC(=O)Oc1c(OC/C=C(\C)CCC=C(C)C)c(=O)oc2c(OC(C)=O)cccc12` [Compound 105, 3-(geranyloxy)-4,8-(diacetoxy)-2H-1-benzopyran-2-one] yielded an inhibition in vivo at 10 mg/kg of 30%.
Molecule `COc1ccc2c(OC(=O)c3ccccc3)c(OC)c(=O)oc2c1` [Compound 30, 3,7-(dimethoxy)-4-(benzoyloxy)-2H-1-benzopyran-2-one] has an inhibition in vivo at 10 mg/kg of 31%.
`CC(C)=CCC/C(C)=C/COc1c(O)c2c(O)cccc2oc1=O` [Compound 187, 3-(geranyloxy)-4,5-(dihydroxy)-2H-1-benzopyran-2-one] was tested, and the inhibition in vivo at 10 mg/kg was 30%.
In the case of `CCCCCCCCCCOc1c(OC(C)=O)c(=O)oc2c(OC(C)C)cccc12` [Compound 136, 3-(acetoxy)-4-(decyloxy)-8-(isopropoxy)-2H-1-benzopyran-2-one], the inhibition in vivo at 10 mg/kg is reported as 33%.
`COc1cccc2c(O)c(OC(=O)c3ccccc3)c(=O)oc12` [Compound 110, 3-(benzoyloxy)-4-hydroxy-8-(methoxy)-2H-1-benzopyran-2-one] gave an inhibition in vivo at 10 mg/kg of 31%.
`CCCCCCCCCCOc1c(OC)c(=O)oc2cccc(OC(C)C)c12` [Compound 216, 3-(methoxy)-4-(decyloxy)-5-(isopropoxy)-2H-1-benzopyran-2-one] was tested, and the inhibition in vivo at 10 mg/kg was 34%.
In the case of `COc1cccc2c(O)c(OC/C=C(\C)CCC=C(C)C)c(=O)oc12` [Compound 120, 3-(geranyloxy)-4-hydroxy-8-(methoxy)-2H-1-benzopyran-2-one], the inhibition in vivo at 10 mg/kg is reported as 33%.
`CCCCOc1cccc2oc(=O)c(OC(=O)c3ccccc3)c(O)c12` [Compound 226, 3-(benzoyloxy)-4-hydroxy-5-(butoxy)-2H-1-benzopyran-2-one] showed an inhibition in vivo at 10 mg/kg of 33%.
In the case of `COc1cccc2oc(=O)c(O)c(OC(C)=O)c12` [Compound 196, 3-hydroxy-4-(acetoxy)-5-(methoxy)-2H-1-benzopyran-2-one], the inhibition in vivo at 10 mg/kg is reported as 33%.
For `CC(=O)Oc1c(O)c(=O)oc2cc(OC/C=C(\C)CCC=C(C)C)ccc12` [Compound 76, 3-hydroxy-4-(acetoxy)-7-(geranyloxy)-2H-1-benzopyran-2-one], the inhibition in vivo at 10 mg/kg was 32%.
Work on `CC(C)Oc1cccc2oc(=O)c(OC(=O)c3ccccc3)c(O)c12` [Compound 210, 3-(benzoyloxy)-4-hydroxy-5-(isopropoxy)-2H-1-benzopyran-2-one] yielded an inhibition in vivo at 10 mg/kg of 40%.
`CCCCCCCCCCOc1ccc2c(OC/C=C(\C)CCC=C(C)C)c(O)c(=O)oc2c1` [Compound 68, 3-hydroxy-4-(geranyloxy)-7-(decyloxy)-2H-1-benzopyran-2-one] was tested, and the inhibition in vivo at 10 mg/kg was 32%.
For `CCCCCCCCCCOc1cccc2c(OC(C)=O)c(O)c(=O)oc12` [Compound 145, 3-hydroxy-4-(acetoxy)-8-(decyloxy)-2H-1-benzopyran-2-one], the inhibition in vivo at 10 mg/kg was 32%.
Molecule `COc1cccc2c(OC(=O)c3ccccc3)c(OC/C=C(\C)CCC=C(C)C)c(=O)oc12` [Compound 122, 3-(geranyloxy)-4-(benzoyloxy)-8-(methoxy)-2H-1-benzopyran-2-one] has an inhibition in vivo at 10 mg/kg of 30%.
For `CCCCCCCCCCOc1cccc2oc(=O)c(OC)c(OC(=O)c3ccccc3)c12` [Compound 236, 3-(methoxy)-4-(benzoyloxy)-5-(decyloxy)-2H-1-benzopyran-2-one], the inhibition in vivo at 10 mg/kg was 31%.
`CC(=O)Oc1c(OC/C=C(\C)CCC=C(C)C)c(=O)oc2cc(OC/C=C(\C)CCC=C(C)C)ccc12` [Compound 85, 3,7-(digeranyloxy)-4-(acetoxy)-2H-1-benzopyran-2-one] gave an inhibition in vivo at 10 mg/kg of 33%.
In the case of `CC(C)=CCC/C(C)=C/COc1cccc2c(O)c(O)c(=O)oc12` [Compound 159, 3,4-(hydroxy)-8-(geranyloxy)-2H-1-benzopyran-2-one], the inhibition in vivo at 10 mg/kg is reported as 36%.
`CC(=O)Oc1c(OC/C=C(\C)CCC=C(C)C)c(=O)oc2cc(O)ccc12` [Compound 21, 3-(geranyloxy)-4-(acetoxy)-7-hydroxy-2H-1-benzopyran-2-one] gave an inhibition in vivo at 10 mg/kg of 33%.
`COc1ccc2c(O)c(OC(C)=O)c(=O)oc2c1` [Compound 29, 3-(acetoxy)-4-hydroxy-7-(methoxy)-2H-1-benzopyran-2-one] showed an inhibition in vivo at 10 mg/kg of 46%.
`CCCCCCCCCCOc1c(OC(C)C)c2c(OC/C=C(\C)CCC=C(C)C)cccc2oc1=O` [Compound 250, 3-(decyloxy)-4-(isopropoxy)-5-(geranyloxy)-2H-1-benzopyran-2-one] was tested, and the inhibition in vivo at 10 mg/kg was 31%.
Work on `COc1cccc2oc(=O)c(OC(C)=O)c(OC)c12` [Compound 201, 3-(acetoxy)-4,5-(dimethoxy)-2H-1-benzopyran-2-one] yielded an inhibition in vivo at 10 mg/kg of 31%.
In the case of `CC(C)=CCC/C(C)=C/COc1c(O)c2ccc(O)cc2oc1=O` [Compound 19, 3-(geranyloxy)-4,7-(dihydroxy)-2H-1-benzopyran-2-one], the inhibition in vivo at 10 mg/kg is reported as 42%.
In the case of `CCCCCCCCCCOc1c(O)c(=O)oc2cc(O)ccc12` [Compound 9, 4-(decyloxy)-3,7-(dihydroxy)-2H-1-benzopyran-2-one], the inhibition in vivo at 10 mg/kg is reported as 39%.
`CC(=O)Oc1ccc2c(OC(C)=O)c(OC/C=C(\C)CCC=C(C)C)c(=O)oc2c1` [Compound 22, 3-(geranyloxy)-4,7-(diacetoxy)-2H-1-benzopyran-2-one] was tested, and the “Allergic reaction inhibitory index (%)” value was 31%.
Work on `CCCCCCCCCCOc1cccc2c(OC(C)C)c(OC(C)=O)c(=O)oc12` [Compound 149, 3-(acetoxy)-4-(isopropoxy)-8-(decyloxy)-2H-1-benzopyran-2-one] yielded an inhibition in vivo at 10 mg/kg of 33%.
`COc1c(OC(C)C)c2ccc(O)cc2oc1=O` [Compound 18, 3-(methoxy)-4-(isopropoxy)-7-hydroxy-2H-1-benzopyran-2-one] was tested, and the inhibition in vivo at 10 mg/kg was 30%.
With `CCCCOc1cccc2oc(=O)c(OC(=O)c3ccccc3)c(OC)c12` [Compound 228, 3-(benzoyloxy)-4-(methoxy)-5-(butoxy)-2H-1-benzopyran-2-one] the inhibition in vivo at 10 mg/kg was 34%.
Molecule `CC(=O)Oc1c(OC/C=C(\C)CCC=C(C)C)c(=O)oc2cccc(O)c12` [Compound 189, 3-(geranyloxy)-4-(acetoxy)-5-hydroxy-2H-1-benzopyran-2-one] has an inhibition in vivo at 10 mg/kg of 30%.
In the case of `CCCCCCCCCCOc1ccc2c(OC(C)C)c(O)c(=O)oc2c1` [Compound 63, 3-hydroxy-4-(isopropoxy)-7-(decyloxy)-2H-1-benzopyran-2-one], the inhibition in vivo at 10 mg/kg is reported as 37%.
`CCCCCCCCCCOc1ccc2c(OC/C=C(\C)CCC=C(C)C)c(OC/C=C(\C)CCC=C(C)C)c(=O)oc2c1` [Compound 73, 3-4-(digeranyloxy)-7-(decyloxy)-2H-1-benzopyran-2-one] was tested, and the inhibition in vivo at 10 mg/kg was 30%.
`COc1c(O)c2ccc(O)cc2oc1=O` [Compound 14, 3-(methoxy)-4,7-(dihydroxy)-2H-1-benzopyran-2-one] gave an inhibition in vivo at 10 mg/kg of 47%.
For `COc1cccc2oc(=O)c(OC(C)=O)c(OC(=O)c3ccccc3)c12` [Compound 197, 3-(acetoxy)-4-(benzoyloxy)-5-(methoxy)-2H-1-benzopyran-2-one], the inhibition in vivo at 10 mg/kg was 32%.
In the case of `COc1c(O)c2c(OC/C=C(\C)CCC=C(C)C)cccc2oc1=O` [Compound 248, 3-(methoxy)-4-hydroxy-5-(geranyloxy)-2H-1-benzopyran-2-one], the inhibition in vivo at 10 mg/kg is reported as 35%.
For `CCCCCCCCCCOc1cccc2c(OC/C=C(\C)CCC=C(C)C)c(OC(=O)c3ccccc3)c(=O)oc12` [Compound 154, 3-(benzoyloxy)-4-(geranyloxy)-8-(decyloxy)-2H-1-benzopyran-2-one], the inhibition in vivo at 10 mg/kg was 31%.
